Source: US20240041042A1, “1-(PYRIDYL)-5-AZINYLPYRAZOLE DERIVATIVES, AND THEIR USE FOR CONTROL OF UNDESIRED PLANT GROWTH” (Bayer Aktiengesellschaft, priority 2020, published 2024)
Read-outs that look alike come from different tables or passages of the source.

Legend:
Type in all cases: in vivo
[1] = tested on: Pharbitis purpurea (PHBPU); assay: Post-emergence herbicidal action against PHBPU
Method in brief: (§1)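 Rates were 320 g/ha or below, applied as aqueous WP/EC spray with 0.5% additive (600 l/ha) onto one-leaf-stage plants. About 3 weeks later in the greenhouse, damage was scored visually against untreated plants on a 0–100% scale, where 100% means plants died.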

Lolium rigidum (LOLRI) [2] = assay: Post-emergence herbicidal action against LOLRI; conditions: dosage 320 g/ha
Method in brief: as §1

[3] = tested on: Echinochloa crus-galli (ECHCG); assay: Post-emergence herbicidal action against ECHCG
Method in brief: as §1

[4] = tested on: Alopecurus myosuroides (ALOMY); assay: Post-emergence herbicidal action against ALOMY; conditions: 320 g/ha, visual rating about 3 weeks after treatment vs untreated controls (100% = plants have died, 0% = like control plants)
Method in brief: as §1

Avena fatua (AVEFA) [5] = assay: Pre-emergence herbicidal action against AVEFA; conditions: 320 g/ha, visual scoring after about 3 weeks vs untreated controls
Method in brief: (§2)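 Pre-emergence soil-surface spray of compound, formulated as wettable powder or emulsion concentrate, in aqueous suspension or emulsion with 0.5% additive (600 l/ha; rate 320 g/ha or less). Activity rated visually after roughly 3 weeks in the greenhouse as a percentage of untreated controls, 0% meaning no difference.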

Viola tricolor (VIOTR) [6] = assay: Pre-emergence herbicidal action against VIOTR
Method in brief: as §2

Lolium rigidum (LOLRI) [7] = assay: Pre-emergence herbicidal action against LOLRI; conditions: dosage 320 g/ha
Method in brief: as §2

[8] = tested on: Polygonum convolvulus (POLCO); assay: Pre-emergence herbicidal action against POLCO
Method in brief: as §2

Avena fatua (AVEFA) [9] = assay: Post-emergence herbicidal action against AVEFA; conditions: 320 g/ha, visual rating about 3 weeks after treatment
Method in brief: as §1

[10] = tested on: Alopecurus myosuroides (ALOMY); assay: Pre-emergence herbicidal action against ALOMY; conditions: 320 g/ha; scored visually after about 3 weeks; 100% = plants have died
Method in brief: as §2

Oryza sativa (ORYSA) [11] = conditions: crop plant compatibility, effect in comparison to untreated controls
Method in brief: (§3)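 Foliar application at the one-leaf stage: WP/EC formulation, 0.5% additive, 600 l/ha water. Greenhouse-grown in sandy loam. Endpoint is visual % injury relative to untreated controls at about 3 weeks.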

Zea mays (ZEAMX) [12] = conditions: crop plant compatibility, 80 g/ha, effect vs untreated controls
Method in brief: as §3

Oryza sativa (ORYSA) [13] = conditions: pre-emergence, 80 g/ha, crop plant compatibility, in comparison to untreated controls
Method in brief: (§4)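 Scoring: visual, % of untreated control, about 3 weeks after a pre-emergence application to the soil surface. Application used WP or EC formulations diluted in water with 0.5% additive at 600 l/ha; dosage levels are marked by suffixes a, b and c.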

Zea mays (ZEAMX) [14] = conditions: pre-emergence, 80 g/ha, crop plant compatibility, in comparison to untreated controls
Method in brief: as §4

Glycine max (GLXMA) = conditions: pre-emergence, 80 g/ha, crop plant compatibility, in comparison to untreated controls
Method in brief: as §4

Brassica napus (BRSNW) = conditions: 80 g/ha, crop plant compatibility, in comparison to untreated controls
Method in brief: as §4

[15] = tested on: Polygonum convolvulus (POLCO); assay: Post-emergence herbicidal action against POLCO
Method in brief: as §1

[16] = tested on: Abutilon theophrasti (ABUTH); assay: Pre-emergence herbicidal action against ABUTH; conditions: Dosage column 320 g/ha (title prints 3200 g/ha); scored visually after about 3 weeks; 100% = plants have died
Method in brief: as §2

Setaria viridis (SETVI) [17] = assay: Pre-emergence herbicidal action against SETVI; conditions: dosage 320 g/ha
Method in brief: as §2

[18] = tested on: Amaranthus retroflexus (AMARE); assay: Post-emergence herbicidal action against AMARE
Method in brief: as §1

[19] = tested on: Triticum aestivum (TRZAS); conditions: pre-emergence, 80 g/ha, crop plant compatibility, in comparison to untreated controls
Method in brief: as §4

[20] = tested on: Amaranthus retroflexus (AMARE); assay: Pre-emergence herbicidal action against AMARE; conditions: visual scoring after about 3 weeks vs untreated controls
Method in brief: as §2

[21] = tested on: Abutilon theophrasti (ABUTH); assay: Post-emergence herbicidal action against ABUTH; conditions: visual rating about 3 weeks after treatment vs untreated controls (100% = plants have died, 0% = like control plants)
Method in brief: as §1

[22] = tested on: Matricaria inodora (MATIN); assay: Pre-emergence herbicidal action against MATIN
Method in brief: as §2

Viola tricolor (VIOTR) [23] = assay: Post-emergence herbicidal action against VIOTR
Method in brief: as §1

[24] = tested on: Matricaria inodora (MATIN); assay: Post-emergence herbicidal action against MATIN
Method in brief: as §1

[25] = tested on: Verconica persica (VERPE); assay: Post-emergence herbicidal action against VERPE; conditions: 320 g/ha, VERPE
Method in brief: as §1

Setaria viridis (SETVI) [26] = assay: Post-emergence herbicidal action against SETVI
Method in brief: as §1

[27] = tested on: Echinochloa crus-galli (ECHCG); assay: Pre-emergence herbicidal action against ECHCG; conditions: dosage 320 g/ha
Method in brief: as §2

[28] = tested on: Digitaria sanguinalis (DIGSA); assay: Pre-emergence herbicidal action against DIGSA; conditions: dosage 320 g/ha
Method in brief: as §2

[29] = tested on: Digitaria sanguinalis (DIGSA); assay: Post-emergence herbicidal action against DIGSA; conditions: 320 g/ha, visual rating about 3 weeks after treatment
Method in brief: as §1

[30] = 80 g/ha, visual rating about 3 weeks after treatment vs untreated controls (100% = plants have died, 0% = like control plants)
[31] = 320 g/ha, visual rating about 3 weeks after treatment

## CCOC(=O)C(C)Oc1nn(-c2ccccn2)c(-c2ccc(F)nc2)c1Br (racemic) [Example I-58]
[1]; dosage 320 g/ha
  Post-emergence action against PHBPU in %: 80%
Lolium rigidum (LOLRI) [2]
  Post-emergence action against LOLRI in %: 80%
[3]; dosage 320 g/ha
  Post-emergence action against ECHCG in %: 80%
[4]
  Post-emergence action against ALOMY in %: 90%
Avena fatua (AVEFA) [5]
  Pre-emergence action against AVEFA in %: 80%
Viola tricolor (VIOTR) [6]; 320 g/ha, Viola tricolor
  Pre-emergence action against VIOTR in %: 80%
Lolium rigidum (LOLRI) [7]
  Pre-emergence action against LOLRI in %: 80%
[8]; dosage 320 g/ha
  Pre-emergence action against POLCO in %: 90%
Avena fatua (AVEFA) [9]
  Post-emergence action against AVEFA in %: 90%
[10]
  Pre-emergence action against ALOMY: 90%
Oryza sativa (ORYSA) [11]; 80 g/ha
  Post-emergence action against ORYSA in %: 0%
Zea mays (ZEAMX) [12]
  Post-emergence action against ZEAMX in %: 20%
Oryza sativa (ORYSA) [13]
  Pre-emergence action against ORYSA in %: 0%
Zea mays (ZEAMX) [14]
  Pre-emergence action against ZEAMX in %: 20%
Glycine max (GLXMA)
  Pre-emergence action against GLXMA in %: 0%
Brassica napus (BRSNW)
  Pre-emergence action against BRSNW in %: 0%

## O=C(COc1nn(-c2ccccn2)c(-c2ccc(F)nc2)c1Br)NS(=O)(=O)CC(F)(F)F [Example I-60]
[3]; dosage 320 g/ha
  Post-emergence action against ECHCG in %: 80%
[15]; dosage 320 g/ha
  Post-emergence action against POLCO in %: 80%
[16]
  Pre-emergence action against ABUTH: 80%
Viola tricolor (VIOTR) [6]; 320 g/ha, Viola tricolor
  Pre-emergence action against VIOTR in %: 80%
Lolium rigidum (LOLRI) [7]
  Pre-emergence action against LOLRI in %: 80%
Avena fatua (AVEFA) [9]
  Post-emergence action against AVEFA in %: 90%
Setaria viridis (SETVI) [17]
  Pre-emergence action against SETVI in %: 80%
Oryza sativa (ORYSA) [11]; 80 g/ha
  Post-emergence action against ORYSA in %: 0%
Oryza sativa (ORYSA) [11]; 320 g/ha
  Post-emergence action against ORYSA in %: 0%
[18]; [30]
  Post-emergence action against AMARE in %: 80%
[18]; [31]
  Post-emergence action against AMARE in %: 80%
Oryza sativa (ORYSA) [13]
  Pre-emergence action against ORYSA in %: 0%
Zea mays (ZEAMX) [14]
  Pre-emergence action against ZEAMX in %: 0%
Glycine max (GLXMA)
  Pre-emergence action against GLXMA in %: 20%
[19]
  Pre-emergence action against TRZAS in %: 0%
[20]; 320 g/ha
  Pre-emergence action against AMARE in %: 90%

## CCOC(=O)CSc1nn(-c2ccccn2)c(-c2cncc(F)c2)c1Cl [Example I-183]
[1]; dosage 80 g/ha
  Post-emergence action against PHBPU in %: 80%
[1]; dosage 320 g/ha
  Post-emergence action against PHBPU in %: 90%
[21]; 80 g/ha
  Post-emergence action against ABUTH in %: 80%
[21]; 320 g/ha
  Post-emergence action against ABUTH in %: 80%
[22]; dosage 80 g/ha
  Pre-emergence action against MATIN in %: 90%
[22]; dosage 320 g/ha
  Pre-emergence action against MATIN in %: 90%
Lolium rigidum (LOLRI) [2]
  Post-emergence action against LOLRI in %: 90%
[3]; dosage 80 g/ha
  Post-emergence action against ECHCG in %: 90%
[3]; dosage 320 g/ha
  Post-emergence action against ECHCG in %: 90%
Viola tricolor (VIOTR) [23]; 80 g/ha
  Post-emergence action against VIOTR in %: 90%
Viola tricolor (VIOTR) [23]; 320 g/ha
  Post-emergence action against VIOTR in %: 90%
[15]; dosage 320 g/ha
  Post-emergence action against POLCO in %: 90%
[16]
  Pre-emergence action against ABUTH: 80%
Avena fatua (AVEFA) [5]
  Pre-emergence action against AVEFA in %: 80%
Viola tricolor (VIOTR) [6]; 320 g/ha, Viola tricolor
  Pre-emergence action against VIOTR in %: 100%
Viola tricolor (VIOTR) [6]; dosage 80 g/ha
  Pre-emergence action against VIOTR in %: 80%
Lolium rigidum (LOLRI) [7]
  Pre-emergence action against LOLRI in %: 90%
[8]; dosage 80 g/ha
  Pre-emergence action against POLCO in %: 80%
[8]; dosage 320 g/ha
  Pre-emergence action against POLCO in %: 90%
Avena fatua (AVEFA) [9]
  Post-emergence action against AVEFA in %: 90%
Setaria viridis (SETVI) [17]
  Pre-emergence action against SETVI in %: 90%
[24]; dosage 80 g/ha
  Post-emergence action against MATIN in %: 80%
[24]; dosage 320 g/ha
  Post-emergence action against MATIN in %: 80%
[25]
  Post-emergence action against VERPE in %: 90%
[10]
  Pre-emergence action against ALOMY: 80%
Setaria viridis (SETVI) [26]; dosage 80 g/ha
  Post-emergence action against SETVI in %: 90%
Setaria viridis (SETVI) [26]; dosage 320 g/ha
  Post-emergence action against SETVI in %: 90%
[18]; [30]
  Post-emergence action against AMARE in %: 90%
[18]; [31]
  Post-emergence action against AMARE in %: 90%
Glycine max (GLXMA)
  Pre-emergence action against GLXMA in %: 0%
[19]
  Pre-emergence action against TRZAS in %: 0%
[27]
  Pre-emergence action against ECHCG in %: 100%
[20]; 80 g/ha
  Pre-emergence action against AMARE in %: 80%
[20]; 320 g/ha
  Pre-emergence action against AMARE in %: 100%

## COC(=O)[C@@H](C)Oc1nn(-c2ccccn2)c(-c2ccc(Cl)nc2)c1Br [Example I-242]
[28]
  Pre-emergence action against DIGSA in %: 90%
[1]; dosage 80 g/ha
  Post-emergence action against PHBPU in %: 80%
[1]; dosage 320 g/ha
  Post-emergence action against PHBPU in %: 80%
Lolium rigidum (LOLRI) [2]
  Post-emergence action against LOLRI in %: 80%
Viola tricolor (VIOTR) [23]; 80 g/ha
  Post-emergence action against VIOTR in %: 80%
Viola tricolor (VIOTR) [23]; 320 g/ha
  Post-emergence action against VIOTR in %: 80%
[15]; dosage 80 g/ha
  Post-emergence action against POLCO in %: 80%
[15]; dosage 320 g/ha
  Post-emergence action against POLCO in %: 80%
[4]
  Post-emergence action against ALOMY in %: 80%
Viola tricolor (VIOTR) [6]; 320 g/ha, Viola tricolor
  Pre-emergence action against VIOTR in %: 100%
Lolium rigidum (LOLRI) [7]
  Pre-emergence action against LOLRI in %: 90%
[8]; dosage 320 g/ha
  Pre-emergence action against POLCO in %: 80%
Avena fatua (AVEFA) [9]
  Post-emergence action against AVEFA in %: 80%
[10]
  Pre-emergence action against ALOMY: 80%
Oryza sativa (ORYSA) [11]; 80 g/ha
  Post-emergence action against ORYSA in %: 0%
Oryza sativa (ORYSA) [11]; 320 g/ha
  Post-emergence action against ORYSA in %: 0%
Zea mays (ZEAMX) [12]
  Post-emergence action against ZEAMX in %: 10%
[18]; [31]
  Post-emergence action against AMARE in %: 80%
Zea mays (ZEAMX) [14]
  Pre-emergence action against ZEAMX in %: 0%
Glycine max (GLXMA)
  Pre-emergence action against GLXMA in %: 0%
Brassica napus (BRSNW)
  Pre-emergence action against BRSNW in %: 20%
[20]; 320 g/ha
  Pre-emergence action against AMARE in %: 100%
[29]
  Post-emergence action against DIGSA in %: 80%
